Data from patent publication US4077999A, “Novel oxime ethers” (Egyt Gyogyszervegyeszeti Gyar, priority 1976, dated 1978).
Where two headings read alike, the source gives them in different places.

What was measured:
tetrabenazine = test: Tetrabenazine antagonistic effect, oral administration; assay type: in vivo; details: for ED50: Mus musculus, read-out: Tetrabenazine antagonism, ED50
Method: (§1) The tetrabenazine-reserpine antagonistic effect was investigated on mice in groups of ten animals each, at oral administration. The inhibition or suspension of the effect of the observed maximum dose was recorded, and the ED50 values were calculated on the basis of the dose vs. effect curves.

reserpine = test: Reserpine antagonistic effect, oral administration; assay type: in vivo; details: for ED50: Mus musculus, mice, oral administration, read-out: Reserpine antagonism ED50
Method: as §1

in vivo [1] = details: mouse
ischiadic nerve of rats = test: Local analgesic effect (method of Truant and d'Amato), motor paralysis and its duration; assay type: in vivo; details: for Duration, minutes (o.5%): 0.5 % concentration; for Duration, minutes (o.5%) / Duration, minutes (1.0%): duration of local analgesic effect (motor paralysis); for Duration, minutes (1.0%): 1.0 % concentration; for Relative efficiency: local analgesic effect, referred to Lidocaine
Excerpt: The local analgesic effect was investigated on the ischiadic nerve of rats by means of the method of Truant and d'Amato (Truant, A.P. and Wiedling, S.: Acta Chirurg. Scand. 116, 351 /1958/). Lidocaine served as reference substance. […]

in vivo [2] = test: in vivo
isolated rat-ileum = test: Spasmolytic effect on non-striated muscles in isolated rat-ileum (method of Brock et al.); details: related to papaverine
Method: The spasmolytic effect on non-striated muscles was determined in isolated rat-ileum by the method of Brock et al. (Brock, N., Geks, J. and Lorenz, D.: Arch. Exper. Path. u. Pharmacol. 215, 492 /1952/), applying papaverine as reference substance. In order to characterize the efficiency of an individual compound, the efficiency related to that of papaverine and the LD50 values observed on oral administration are shown in Table II.

nicotine lethality = test: Inhibition of nicotine lethality (method of Stone), oral administration; assay type: in vivo, mice; details: for Therapeutic index: LD50/ED50; for ED50: Mus musculus
[3] = mice, oral administration, Table IV
[4] = inhibition of nicotine lethality
[5] = inhibition of nicotine lethality, mice, oral administration, read-out: ED50
[6] = mice, oral administration, Table III
[7] = oral administration, Table II, read-out: LD50 p.o.

| SMILES | ED50 (tetrabenazine; po) [mg/kg] | ED50 (reserpine) [mg/kg] | Duration, minutes (o.5%) (ischiadic nerve of rats) [min] | Duration, minutes (1.0%) (ischiadic nerve of rats) [min] | Relative efficiency (ischiadic nerve of rats) | LD50 (in vivo [2]; po) [mg/kg] | also measured |
| --- | --- | --- | --- | --- | --- | --- | --- |
| CN(C)CCC=C1c2ccccc2CCc2ccccc21 [Amitriptylin, reference compound] | 13 | 65 | – | – | – | – | Therapeutic index (tetrabenazine; tetrabenazine antagonism): 17.3; Therapeutic index (reserpine; reserpine antagonism): 3.5; LD50 (in vivo [1]; [3]): 225 mg/kg |
| CN(C)CCCON=C1CCCCC1=Cc1ccccc1 [Example 1, 2-Benzal-1-(3'-dimethylaminopropoxyimino)-cyclohexane] | 80 | 27 | 99 | 115 | 1.7 | 560 | Therapeutic index (tetrabenazine; mouse, in vivo, po): 7.0; Therapeutic index (reserpine; mouse, in vivo, po): 20.7; LD50 (in vivo [1]; po): 560 mg/kg |
| CCN(CC)CCON=C1CCCCC1=Cc1ccccc1 [Example 2, 2-Benzal-1-(2'-diethylaminoethoxyimino)-cyclohexane] | – | – | 72 | 111 | 3.2 | 430 | Relative efficiency (isolated rat-ileum): 1.73 |
| NCCON=C1CCCCC1=Cc1ccccc1 [Example 4, 1-(2'-Aminoethoxyimino)-2-benzalcyclohexane] | – | – | – | – | – | – | Therapeutic index (nicotine lethality; [4]): 36.4; ED50 (nicotine lethality; [5]): 11 mg/kg; LD50 (in vivo [1]; [6]): 400 mg/kg |
| CN(C)CCON=C1CCCC1=Cc1ccccc1 [Example 5, 2-Benzal-1-(2'-dimethylaminoethoxyimino)-cyclopentane] | – | – | 68 | 96 | 1.8 | 450 | – |
| CCN(CC)CCON=C1CCCC1=Cc1ccccc1 [Example 7, 2-Benzal-1-(2'-diethylaminoethoxyimino)-cyclopentane] | – | – | 94 | 127 | 1.8 | 210 | – |
| CC(C)N(CCON=C1CCCC1=Cc1ccccc1)C(C)C [Example 8, 2-Benzal-1-(2'-diisopropylaminoethoxyimino)-cyclopentane] | – | – | 66 | 129 | 1.1 | 450 | – |
| CN(C)CCCON=C1CCCCCC1=Cc1ccccc1 [Example 10, 2-Benzal-1-(3'-dimethylaminopropoxyimino)-cycloheptane] | – | – | – | – | – | – | Relative efficiency (isolated rat-ileum): 2.42; LD50 (in vivo [2]; [7]): 550 mg/kg |
| CC(C)N(CCON=C1CCCCCC1=Cc1ccccc1)C(C)C [Example 11, 2-Benzal-1-(2'-diisopropylaminoethoxyimino)-cycloheptane] | – | – | – | – | – | – | Relative efficiency (isolated rat-ileum): 3.01; LD50 (in vivo [2]; [7]): 325 mg/kg |
| CN(C)CCCON=C1CCCCCC1=Cc1ccc(Cl)cc1 [Example 12, 1-(3'-Dimethylaminopropoxyimino)-2-(p-chlorobenzal)-cycloheptane] | – | – | – | – | – | – | Therapeutic index (nicotine lethality; [4]): 36.3; ED50 (nicotine lethality; [5]): 40 mg/kg; LD50 (in vivo [1]; [6]): 1450 mg/kg |
| COc1ccc(C=C2CCCCCC2=NOCCCN(C)C)cc1 [Example 13, 1-(3'-Dimethylaminopropoxyimino)-2-(p-methoxybenzal)-cycloheptane] | 70 | 80 | – | – | – | – | Therapeutic index (tetrabenazine; tetrabenazine antagonism): 14.3; Therapeutic index (reserpine; reserpine antagonism): 12.5; Relative efficiency (isolated rat-ileum): 1.96; LD50 (in vivo [2]; [7]): 1000 mg/kg; LD50 (in vivo [1]; [3]): 1000 mg/kg |
| COc1ccccc1C=C1CCCCC1=NOCCCN(C)C [Example 15, 1-(3'-Dimethylaminopropoxyimino)-2-(o-methoxybenzal)-cyclohexane] | – | – | 92 | 160 | 1.7 | 880 | – |
| COc1ccccc1C=C1CCCCC1=NOCC(C)CN(C)C (stereo not drawn) [Example 18, 1-(2'-Methyl-3'-dimethylaminopropoxyimino)-2-(o-methoxybenzal)-cyclohexane] | – | – | – | – | – | – | Relative efficiency (isolated rat-ileum): 2.43; LD50 (in vivo [2]; [7]): 650 mg/kg |
| CN(C)CCCON=C1CCCCC1=Cc1ccc(Cl)cc1 [Example 19, 1-(Dimethylaminopropoxyimino)-2-(p-chlorobenzal)-cyclohexane] | 34 | > 180 | – | – | – | – | Therapeutic index (tetrabenazine; tetrabenazine antagonism): 26.5; Therapeutic index (reserpine; reserpine antagonism): 5.0; LD50 (in vivo [1]; [3]): 900 mg/kg |
| CN(C)CCCON=C1CCCCC1=Cc1ccccc1Cl [Example 21, 1-(Dimethylaminopropoxyimino)-2-(o-chlorobenzal)-cyclohexane] | 22 | > 100 | – | – | – | – | Therapeutic index (tetrabenazine; tetrabenazine antagonism): 68.2; Therapeutic index (reserpine; reserpine antagonism): 15.0; LD50 (in vivo [1]; [3]): 1500 mg/kg |
| CN(C)CCON=C1CCCC1=Cc1ccccc1 [Example 27, 2-Benzal-1-(2'-dimethylaminoethoxyimino)-cyclopentane] | 120 | 18 | – | – | – | – | Therapeutic index (tetrabenazine; tetrabenazine antagonism): 5.0; Therapeutic index (reserpine; reserpine antagonism): 33.0; Therapeutic index (nicotine lethality; [4]): 12.8; ED50 (nicotine lethality; po): 47 mg/kg; LD50 (in vivo [1]; [3]): 600 mg/kg |
| CCN(CC)CC(=O)Nc1c(C)cccc1C [Lidocaine, reference compound] | – | – | 28 | 52 | – | – | – |
| COc1ccc(Cc2nccc3cc(OC)c(OC)cc23)cc1OC [Papaverine, reference compound] | – | – | – | – | – | – | LD50 (in vivo [2]; [7]): 367 mg/kg |
| OC(CCN1CCCCC1)(c1ccccc1)C1CCCCC1 (stereo not drawn) [Trihexyphenidyl (Artane), Trihexyphenidyl, reference compound] | – | – | – | – | – | – | ED50 (nicotine lethality; [5]): 40 mg/kg |
